pIC50: −log10 of the molar value.
Target: Rho-associated protein kinase 2 (Homo sapiens, UniProt O75116)
Test: Kinase Inhibition

Rho-associated protein kinase 2, sequence (O75116 whole entry): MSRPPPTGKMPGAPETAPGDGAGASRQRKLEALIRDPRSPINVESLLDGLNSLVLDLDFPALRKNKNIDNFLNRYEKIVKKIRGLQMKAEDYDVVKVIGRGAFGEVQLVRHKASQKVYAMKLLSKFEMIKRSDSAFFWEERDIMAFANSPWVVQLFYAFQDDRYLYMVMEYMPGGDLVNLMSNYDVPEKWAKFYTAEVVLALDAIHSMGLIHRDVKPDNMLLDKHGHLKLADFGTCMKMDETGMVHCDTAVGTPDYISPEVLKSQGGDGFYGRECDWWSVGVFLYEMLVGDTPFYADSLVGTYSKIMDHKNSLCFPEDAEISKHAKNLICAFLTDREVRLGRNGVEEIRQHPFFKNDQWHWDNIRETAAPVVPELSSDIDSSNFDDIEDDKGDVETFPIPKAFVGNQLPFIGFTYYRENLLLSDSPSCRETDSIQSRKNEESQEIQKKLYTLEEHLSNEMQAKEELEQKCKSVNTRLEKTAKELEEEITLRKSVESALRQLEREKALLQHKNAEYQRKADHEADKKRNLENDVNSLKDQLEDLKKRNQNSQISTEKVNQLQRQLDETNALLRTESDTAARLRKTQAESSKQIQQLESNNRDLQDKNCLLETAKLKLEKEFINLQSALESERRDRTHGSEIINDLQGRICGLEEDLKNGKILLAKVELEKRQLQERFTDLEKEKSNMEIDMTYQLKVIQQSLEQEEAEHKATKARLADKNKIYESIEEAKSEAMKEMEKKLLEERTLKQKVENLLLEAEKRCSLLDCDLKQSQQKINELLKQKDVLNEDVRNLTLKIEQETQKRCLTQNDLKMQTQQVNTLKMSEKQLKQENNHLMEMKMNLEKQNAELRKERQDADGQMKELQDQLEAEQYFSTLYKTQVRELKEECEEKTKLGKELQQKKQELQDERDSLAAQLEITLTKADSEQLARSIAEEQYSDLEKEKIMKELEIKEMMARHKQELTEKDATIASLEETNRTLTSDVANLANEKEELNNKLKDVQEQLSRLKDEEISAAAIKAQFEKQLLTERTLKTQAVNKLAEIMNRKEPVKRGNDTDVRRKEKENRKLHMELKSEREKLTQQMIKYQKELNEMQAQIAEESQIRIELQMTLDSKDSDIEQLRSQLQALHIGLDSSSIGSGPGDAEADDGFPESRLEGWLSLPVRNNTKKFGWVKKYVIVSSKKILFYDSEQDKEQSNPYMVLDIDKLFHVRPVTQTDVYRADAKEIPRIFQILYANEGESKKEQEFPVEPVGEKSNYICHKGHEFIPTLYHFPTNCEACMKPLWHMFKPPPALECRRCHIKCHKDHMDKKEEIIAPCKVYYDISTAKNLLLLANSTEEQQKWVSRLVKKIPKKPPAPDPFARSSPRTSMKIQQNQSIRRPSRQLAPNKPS

pIC50: 9.29
Structure (SMILES): CCOc1ccc(NC(=O)c2cccc([C@@H](CO)NC(=O)c3ccc(-c4ccncc4)cc3)c2)cn1 [US11555039, Compound ID 93]

Reference: BindingDB's records for patent US11555039 (Translational Drug Development, 2023)
